Test results published in PubChem BioAssay AID1963959 (Molecular Pharmacology Branch, DTP, NCI, 2024).

System: T-47D spheroids with HUVEC/MSC, viability
Test: Anticancer human tumor T-47D cell line growth inhibition [PI3K];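 further: spheroids exposed to agents for seven days before reading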;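 on viability, T/C: percent of DMSO vehicle control luminescence so 100% = untreated growth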
Settings: for IC50: curve of first compound; for viability, T/C: stronger effect = lower value
How it was run: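 Complex 3D spheroids (cancer cells + endothelial HUVEC + mesenchymal stem cells); drug pairs of targeted agent x inavolisib/alpelisib/duvelisib/copanlisib; half-log series from ~Cmax, max 10 microM if Cmax unknown; endpoint viability.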

[1] = second compound 0.00316 µM, first compound 0.0316 µM
[2] = second compound 0.00316 µM, first compound 0.1 µM
[3] = second compound 0.00316 µM, first compound 0.316 µM
[4] = second compound 0.00316 µM, first compound 1 µM
[5] = second compound 0.00316 µM, first compound 3.16 µM
[6] = second compound 0.00316 µM, first compound 10 µM
[7] = second compound 0.01 µM, first compound 0.0316 µM
[8] = second compound 0.01 µM, first compound 0.1 µM
[9] = second compound 0.01 µM, first compound 0.316 µM
[10] = second compound 0.01 µM, first compound 1 µM
[11] = second compound 0.01 µM, first compound 3.16 µM
[12] = second compound 0.01 µM, first compound 10 µM
[13] = second compound 0.0316 µM, first compound 0.0316 µM
[14] = second compound 0.0316 µM, first compound 0.1 µM
[15] = second compound 0.0316 µM, first compound 0.316 µM
[16] = second compound 0.0316 µM, first compound 1 µM
[17] = second compound 0.0316 µM, first compound 3.16 µM
[18] = second compound 0.0316 µM, first compound 10 µM
[19] = second compound 0.1 µM, first compound 0.0316 µM
[20] = second compound 0.1 µM, first compound 0.1 µM
[21] = second compound 0.1 µM, first compound 0.316 µM
[22] = second compound 0.1 µM, first compound 1 µM
[23] = second compound 0.1 µM, first compound 3.16 µM
[24] = second compound 0.1 µM, first compound 10 µM
[25] = second compound 0.316 µM, first compound 0.0316 µM
[26] = second compound 0.316 µM, first compound 0.1 µM
[27] = second compound 0.316 µM, first compound 0.316 µM
[28] = second compound 0.316 µM, first compound 1 µM
[29] = second compound 0.316 µM, first compound 3.16 µM
[30] = second compound 0.316 µM, first compound 10 µM
[31] = second compound 1 µM, first compound 0.0316 µM
[32] = second compound 1 µM, first compound 0.1 µM
[33] = second compound 1 µM, first compound 0.316 µM
[34] = second compound 1 µM, first compound 1 µM
[35] = second compound 1 µM, first compound 3.16 µM
[36] = second compound 1 µM, first compound 10 µM

## CCCS(=O)(=O)Nc1ccc(F)c(C(=O)c2c[nH]c3ncc(-c4ccc(Cl)cc4)cc23)c1F + COc1c(OCCCN2CCOCC2)ccc2c3n(c(=NC(=O)c4cnc(N)nc4)nc12)CCN3
Second compound 0.00316 µM
  IC50: > 10000 nM
Second compound 0.01 µM
  IC50: > 10000 nM
Second compound 0.0316 µM
  IC50: > 10000 nM
Second compound 0.1 µM
  IC50: < 31.6 nM
Second compound 0.316 µM
  IC50: < 31.6 nM
Second compound 1 µM
  IC50: < 31.6 nM
[1]
  viability, T/C: 104%
[2]
  viability, T/C: 86.9%
[3]
  viability, T/C: 110%
[4]
  viability, T/C: 94.1%
[5]
  viability, T/C: 69.5%
[6]
  viability, T/C: 56.8%
[7]
  viability, T/C: 98.3%
[8]
  viability, T/C: 86.2%
[9]
  viability, T/C: 83.4%
[10]
  viability, T/C: 92.4%
[11]
  viability, T/C: 87.4%
[12]
  viability, T/C: 51.3%
[13]
  viability, T/C: 66.8%
[14]
  viability, T/C: 77%
[15]
  viability, T/C: 73.9%
[16]
  viability, T/C: 62.5%
[17]
  viability, T/C: 57.5%
[18]
  viability, T/C: 52.2%
[19]
  viability, T/C: 38%
[20]
  viability, T/C: 42.6%
[21]
  viability, T/C: 36.4%
[22]
  viability, T/C: 39.8%
[23]
  viability, T/C: 31.6%
[24]
  viability, T/C: 33.7%
[25]
  viability, T/C: 14.9%
[26]
  viability, T/C: 22.1%
[27]
  viability, T/C: 18.3%
[28]
  viability, T/C: 16.1%
[29]
  viability, T/C: 18.8%
[30]
  viability, T/C: 20.5%
[31]
  viability, T/C: 5.53%
[32]
  viability, T/C: 9.03%
[33]
  viability, T/C: 6.15%
[34]
  viability, T/C: 2.77%
[35]
  viability, T/C: 4.64%
[36]
  viability, T/C: 6.82%

## C[C@@H](NC(=O)c1ncnc(N)c1Cl)c1ncc(C(=O)Nc2cc(C(F)(F)F)c(Cl)cn2)s1 + COc1c(OCCCN2CCOCC2)ccc2c3n(c(=NC(=O)c4cnc(N)nc4)nc12)CCN3
Second compound 0.00316 µM
  IC50: > 10000 nM
Second compound 0.01 µM
  IC50: > 10000 nM
Second compound 0.0316 µM
  IC50: > 10000 nM
Second compound 0.1 µM
  IC50: < 31.6 nM
Second compound 0.316 µM
  IC50: < 31.6 nM
Second compound 1 µM
  IC50: < 31.6 nM
[1]
  viability, T/C: 92.7%
[2]
  viability, T/C: 82.9%
[3]
  viability, T/C: 97.8%
[4]
  viability, T/C: 106%
[5]
  viability, T/C: 77.7%
[6]
  viability, T/C: 86.6%
[7]
  viability, T/C: 93.5%
[8]
  viability, T/C: 90.5%
[9]
  viability, T/C: 76.2%
[10]
  viability, T/C: 78.5%
[11]
  viability, T/C: 86.1%
[12]
  viability, T/C: 85%
[13]
  viability, T/C: 66.1%
[14]
  viability, T/C: 71.2%
[15]
  viability, T/C: 55.1%
[16]
  viability, T/C: 61.7%
[17]
  viability, T/C: 65.4%
[18]
  viability, T/C: 68.9%
[19]
  viability, T/C: 40.3%
[20]
  viability, T/C: 32.9%
[21]
  viability, T/C: 35.5%
[22]
  viability, T/C: 38.4%
[23]
  viability, T/C: 48%
[24]
  viability, T/C: 38.3%
[25]
  viability, T/C: 11.7%
[26]
  viability, T/C: 12.6%
[27]
  viability, T/C: 17.4%
[28]
  viability, T/C: 16%
[29]
  viability, T/C: 14.6%
[30]
  viability, T/C: 20.3%
[31]
  viability, T/C: 4.16%
[32]
  viability, T/C: 8.23%
[33]
  viability, T/C: 6.02%
[34]
  viability, T/C: 4.08%
[35]
  viability, T/C: 4.3%
[36]
  viability, T/C: 7.55%

## Cn1ncnc1[C@H]1c2n[nH]c(=O)c3cc(F)cc(c23)N[C@@H]1c1ccc(F)cc1 + COc1c(OCCCN2CCOCC2)ccc2c3n(c(=NC(=O)c4cnc(N)nc4)nc12)CCN3
Second compound 0.00316 µM
  IC50: > 100 nM
Second compound 0.01 µM
  IC50: > 100 nM
Second compound 0.0316 µM
  IC50: > 100 nM
Second compound 0.1 µM
  IC50: < 0.316 nM
Second compound 0.316 µM
  IC50: < 0.316 nM
Second compound 1 µM
  IC50: < 0.316 nM
Second compound 0.00316 µM, first compound 0.000316 µM
  viability, T/C: 102%
Second compound 0.00316 µM, first compound 0.001 µM
  viability, T/C: 87.4%
Second compound 0.00316 µM, first compound 0.00316 µM
  viability, T/C: 112%
Second compound 0.00316 µM, first compound 0.01 µM
  viability, T/C: 104%
[1]
  viability, T/C: 109%
[2]
  viability, T/C: 101%
Second compound 0.01 µM, first compound 0.000316 µM
  viability, T/C: 114%
Second compound 0.01 µM, first compound 0.001 µM
  viability, T/C: 83.9%
Second compound 0.01 µM, first compound 0.00316 µM
  viability, T/C: 93.7%
Second compound 0.01 µM, first compound 0.01 µM
  viability, T/C: 79.3%
[7]
  viability, T/C: 99.5%
[8]
  viability, T/C: 94.1%
Second compound 0.0316 µM, first compound 0.000316 µM
  viability, T/C: 72.9%
Second compound 0.0316 µM, first compound 0.001 µM
  viability, T/C: 72.8%
Second compound 0.0316 µM, first compound 0.00316 µM
  viability, T/C: 85%
Second compound 0.0316 µM, first compound 0.01 µM
  viability, T/C: 71.4%
[13]
  viability, T/C: 75.1%
[14]
  viability, T/C: 64.8%
Second compound 0.1 µM, first compound 0.000316 µM
  viability, T/C: 40.9%
Second compound 0.1 µM, first compound 0.001 µM
  viability, T/C: 47.6%
Second compound 0.1 µM, first compound 0.00316 µM
  viability, T/C: 41.2%
Second compound 0.1 µM, first compound 0.01 µM
  viability, T/C: 34.1%
[19]
  viability, T/C: 40.7%
[20]
  viability, T/C: 39%
Second compound 0.316 µM, first compound 0.000316 µM
  viability, T/C: 18.9%
Second compound 0.316 µM, first compound 0.001 µM
  viability, T/C: 20.8%
Second compound 0.316 µM, first compound 0.00316 µM
  viability, T/C: 15.2%
Second compound 0.316 µM, first compound 0.01 µM
  viability, T/C: 17.1%
[25]
  viability, T/C: 14.8%
[26]
  viability, T/C: 15.1%
Second compound 1 µM, first compound 0.000316 µM
  viability, T/C: 5.24%
Second compound 1 µM, first compound 0.001 µM
  viability, T/C: 6.61%
Second compound 1 µM, first compound 0.00316 µM
  viability, T/C: 7.38%
Second compound 1 µM, first compound 0.01 µM
  viability, T/C: 7.19%
[31]
  viability, T/C: 5.03%
[32]
  viability, T/C: 6.71%
